According to patent publication EP1212309B1, “CASPASE INHIBITOR” (LG Chem Investment, Ltd., priority 1999, dated 2001):
pEC50, pKi: −log10 of the molar value. “And” between values parts separate entries of the source, which are not always exact repeats. Identical values can stand only once. Like-named read-outs stand apart in the source and are kept apart here.

Assays:
[1] = system: Jurkat T cell; experiment: MTT assay of cell death induced by Anti-FAS antibody CH11; assay type: cell-based; settings: Jurkat T cell treated with Anti-FAS antibody CH11, MTT, read-out: ED50 FAS Induced cell death
[2] = system: WI38 cells; experiment: Protection from IFNγ and anti-Fas antibody-induced apoptosis (XTT); assay type: cell-based, human; settings: 100% when Fas antibody was not treated; for viability ratio: WI38 cells
Experimental: WI38 cells (human embryonal lung fibroblast) were grown in a medium containing DMEM-10% FBS within 10cm diameter dishes until reaching at confluency. The cells were seeded into a 24-well plate at day 1 and incubated overnight while the volume of medium was maintained to 400µℓ. […] At day 3, each 100 µℓ of test compound was added to the cells after diluting the 10mM stock compound in DMSO to final concentrations of 50, 10, 2, and 0.4 µ M, respectively. The cells were incubated for 2 hrs in order for allowing the compound to enter into the cells and then treated with 40ng/well of anti-Fas antibody(apoptosis was induced 2 hrs after antibody was treated and the incubation was continued overnight). The control was not treated with Fas antibody. […] After coloring, 100-200µℓ of the supernatant was transferred to a 96-well plate and the absorbance at 490 nm was read with ELISA plate reader. For the blank, XTT solution was added to the well containing the medium only. Plotting was determined by comparing with the control group (100% when Fas antibody was not treated).

[3] = biological target: T1, caspase-1 (Homo sapiens, UniProt P29466); experiment: Screening on caspases inhibiting activity (recombinant enzyme, fluorogenic AMC substrate); assay type: biochemical; settings: for pKi: Reversible Inhibitor
T1 construct: made in house
T1 sequence (P29466 120-297 limits assumed): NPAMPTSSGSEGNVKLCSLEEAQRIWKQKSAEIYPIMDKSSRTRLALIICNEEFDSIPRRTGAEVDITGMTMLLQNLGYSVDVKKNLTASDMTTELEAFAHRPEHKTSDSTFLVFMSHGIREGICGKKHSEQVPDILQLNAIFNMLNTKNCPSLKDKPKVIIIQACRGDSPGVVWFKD
T1 sequence (P29466 317-404 limits assumed): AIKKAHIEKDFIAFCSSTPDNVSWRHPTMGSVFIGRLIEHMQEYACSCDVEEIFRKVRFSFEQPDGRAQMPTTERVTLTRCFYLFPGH
Experimental: (§1) In the present experiment, recombinant caspases were purified from a transformed bacterium after human caspase genes were cloned into the expression vector pET, and then used in the experiment (Thornberry, N.A. et .al. Nature, 1992, 356, 768. Thombeny, N.A. Methods in Enzymology, 1994, 615.).
(§2) Enzymatic activity was measured by a known procedure (Walker N.P.C. et al., Cell 1994, 78, 343). Briefly, 10 ng of recombinant protein was mixed with 50 mM Tris(pH 7.0), 1mM DTT, 0.5 mM EDTA, 10% Glycerol buffer containing 1∼100 µM of enzyme substrate, Ac-YVAD-AMC or Ac-DEVD-AMC and then the changes by isolated AMC at 37°C were recorded. The inhibitory activity for caspases was calculated from the early enzyme reaction rate by measuring the changes with fluorescence excited at […] and emitted at 460 nm (Range; Ki<100nM).

[4] = biological target: T2, caspase-3 (Homo sapiens, UniProt P42574); experiment: as above; assay type: biochemical; settings: Irreversible Inhibitors
T2 construct: made in house
T2 sequence (P42574 29-175 limits assumed): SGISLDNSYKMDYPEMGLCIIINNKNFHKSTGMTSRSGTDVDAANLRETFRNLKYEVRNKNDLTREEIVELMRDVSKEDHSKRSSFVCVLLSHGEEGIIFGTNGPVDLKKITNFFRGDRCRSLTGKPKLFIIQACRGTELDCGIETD
T2 sequence (P42574 176-277 limits assumed): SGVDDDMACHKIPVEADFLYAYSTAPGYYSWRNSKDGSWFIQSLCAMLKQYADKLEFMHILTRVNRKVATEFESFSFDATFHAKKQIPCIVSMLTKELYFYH
Experimental: as §1, §2

## CC1(C(=O)N[C@@H](CC(=O)O)C(=O)COc2ccccc2)CC([C@H](CCC(=O)O)NC(=O)CCC(=O)O)=NO1 (mixture of isomers) [Compound 46, (3S)-3-{3-[(1S)-1-(succinoylamino)-3-carboxy-propyl]-5-methyl-4,5-dihydro-isoxazole-5-carbonylamino}-4-keto-5-phenoxy-pentanoic acid]
[1]; Homo sapiens
  pEC50: 5.00 to 6.00

## CC(C)[C@H](NC(=O)CCC(=O)O)C1=NOC(C)(C(=O)N[C@@H](CC(=O)O)C(=O)COc2ccccc2)C1 (mixture of isomers) [Compound 47, (3S)-3-{3-[2-methyl-(1S)-1-(succinoylamino)-propyl]-5-methyl-4,5-dihydro-isoxazole-5-carbonylamino}-4-keto-5-phenoxy-pentanoic acid]
[1]; Homo sapiens
  pEC50: 5.00 to 6.00

## CC(C)[C@H](NC(=O)CCC(=O)O)C1=NOC(C)(C(=O)N[C@@H](CC(=O)O)C(=O)COc2ccc3ccccc3c2)C1 (single isomer, unassigned) [Compound 81]
[1]; Homo sapiens
  pEC50: 5.00 to 6.00

## CC(=O)N[C@@H](CC(=O)O)C(=O)N[C@@H](CCC(=O)O)C(=O)N[C@H](C(=O)N[C@H](C=O)CC(=O)O)C(C)C [Ac-DEVD-CHO, reference compound]
[2]; Conc. 0.4 µM
  viability ratio: 12.16%
[2]; Conc. 2 µM
  viability ratio: 14.75%
[2]; Conc. 10 µM
  viability ratio: 19.16%
[2]; Conc. 50 µM, 50 µM
  viability ratio: 35.1% and 35.14%

## CC(C)[C@H](NC(=O)c1ccc2ccccc2c1)C1=NOC(COc2ccccc2)(C(=O)N[C@@H](CC(=O)O)C(=O)COc2ccc3ccccc3c2)C1 (stereo partly drawn) [Compound 25mp, (3S)-3-{3-[(1S)-1-(naphthalene-2-carbonylamino)-2-methyl-propyl]-5-phenoxymethyl-4,5-dihydro-isoxazole-5-carbonylamino}-4-keto-5-(2-naphthyloxy)-pent anoic acid]
[3]
  pKi: 10.14
[1]; Homo sapiens
  pEC50: 5.00 to 6.00

## CC(C)[C@H](NC(=O)c1ccc2ccccc2c1)C1=NOC(Cc2ccccc2)(C(=O)N[C@@H](CC(=O)O)C(=O)COC(=O)c2c(Cl)cccc2Cl)C1 (stereo partly drawn) [Compound 28, (3S)-3-{3-{(1S)-1-(naphthalene-2-carbonylamino)-2-methyl-propyl]-5-phenylmethyl-4,5-dihydro-isoxazole-5-carbonylamino}-4-keto-5-(2,6-dichlorobenzoyloxy)-pentanoic acid]
[2]; Homo sapiens, WI-38, WI38 cells, Conc. 0.4 µM, read-out: viability ratio
  viability at 0.4 µM: 14.7%
[2]; Homo sapiens, WI-38, WI38 cells, Conc. 2 µM, read-out: viability ratio
  viability at 2 µM: 17.3%
[2]; Homo sapiens, WI-38, WI38 cells, Conc. 10 µM, read-out: viability ratio
  viability at 10 µM: 82.4%
[2]; Homo sapiens, WI-38, WI38 cells, Conc. 50 µM, read-out: viability ratio
  viability at 50 µM: 90%
[2]; Conc. 50 µM, listed as Comp 28, 50 µM
  viability ratio: 90.39%

## CC(C)[C@H](NC(=O)c1ccc2ccccc2c1)C1=NOC(C(=O)N[C@@H](CC(=O)O)C(=O)COc2ccc3ccccc3c2)C1 (stereo partly drawn) [Compound 29, (3S)-3-{3-[(1S)-1-(naphthalene-2-carbonylamino)-2-methyl-propyl]-4,5-dihydro-isoxazole-5-carbonylamino}-4-keto-5-(2-naphthyloxy)-pentanoic acid]
[1]; Homo sapiens
  pEC50: 5.00 to 6.00

## CC(C)[C@H](NC(=O)c1ccc2ccccc2c1)C1=NOC(C(=O)N[C@@H](CC(=O)O)C(=O)COc2ccccc2)C1 (stereo partly drawn) [Compound 30, (3S)-3-{3-[2-methyl-(1S)-1-(2-naphthalenecarbonylamino)-propyl]-4,5-dihydro-isoxazole-5-carbonylamino}-4-keto-5-phenoxy-pentanoic acid]
[1]; Homo sapiens
  pEC50: 5.00 to 6.00

## CC(C)[C@H](NC(=O)c1ccc2ccccc2n1)C1=NOC(Cc2ccccc2)(C(=O)N[C@@H](CC(=O)O)C(=O)COc2ccccc2)C1 (stereo partly drawn) [Compound 43mp, (3S)-3-{3-[2-methyl-(1S)-1-(quinoline-2-yl-carbonylamino)-propyl]-5-phenylmethyl-4,5-dihydro-isoxazole-5-carbonylamino}-4-keto-5-phenoxy-pentanoic acid]
[3]
  pKi: 8.40
[1]; Homo sapiens
  pEC50: 5.00 to 6.00

## CC(C)[C@H](NC(=O)c1cccc2ccccc12)C1=NOC(Cc2ccccc2)(C(=O)N[C@@H](CC(=O)O)C(=O)CN2CCCCC2)C1 (stereo partly drawn) [Compound 48, (3S)-3-{3-[2-methyl-(1S)-1-(1-naphtalenylcarbonylamino)-propyl]-5-phenylmethyl-4,5-dihydro-isoxazole-5-carbonylamino}-4-keto-5-(1-piperidinyl)-pentanoic acid]
[1]; Homo sapiens
  pEC50: 5.00 to 6.00

## CC(C)[C@H](NC(=O)c1cc2ccccc2[nH]1)C1=NOC(Cc2ccccc2)(C(=O)N[C@@H](CC(=O)O)C(=O)COC(=O)c2c(Cl)cccc2Cl)C1 (stereo partly drawn) [Compound 64, (3S)-3-{3-[2-methyl-(1S)-1-(indole-2-carbonylamino)-propyl]-5-phenylmethyl - 4,5-dihydro-isoxazole-5-carbonylamino}-4-keto-5-(2,6-dichlorobenzoyloxy)-pe ntanoic acid]
[1]; Homo sapiens
  pEC50: 5.00 to 6.00

## CC(C)[C@H](NC(=O)c1c[nH]c2ccccc12)C1=NOC(Cc2ccccc2)(C(=O)N[C@@H](CC(=O)O)C(=O)COC(=O)c2c(Cl)cccc2Cl)C1 (stereo partly drawn) [Compound 66, (3S)-3-{3-[2-methyl-(1S)-1-(indole-3-carbonylamino)-propyl]-5-phenylmethyl - 4,5-dihydro-isoxazole-5-carbonylamino}-4-keto-5-(2,6-dichlorobenzoyloxy)-pe ntanoic acid]
[1]; Homo sapiens
  pEC50: 5.00 to 6.00

## CC(C)[C@H](NC(=O)c1cccc2ccccc12)C1=NOC(C)(C(=O)N[C@@H](CC(=O)O)C(=O)COC(=O)c2c(Cl)cccc2Cl)C1 (stereo partly drawn) [Compound 68, (3S)-3-{3-[2-methyl-(1S)-1-(naphthalene-1-carbonylamino)-propyl]-5-methyl-4,5-dihydro-isoxazole-5-carbonylamino}-4-keto-5-(2,6-dichlorobenzoyloxy)-pen tanoic acid]
[1]; Homo sapiens
  pEC50: 5.00 to 6.00

## CC(C)[C@H](NC(=O)CCC(=O)O)C1=NOC(C)(C(=O)N[C@@H](CC(=O)O)C(=O)COC(=O)c2c(Cl)cccc2Cl)C1 (stereo partly drawn) [Compound 74, (3S)-3-{3-[2-methyl-(1S)-1-(succinoylamino)-propyl]-5-methyl-4,5-dihydro-isoxazole-5-carbonylamino}-4-keto-5-(2,6-dichlorobenzoyloxy)-pentanoic acid]
[3]; Irreversible Inhibitors
  Kobs/[I] for caspase-1: 14500 M⁻¹ s⁻¹
[4]
  Kobs/[I] for caspase-3: 40900 M⁻¹ s⁻¹

## CC(C)[C@H](NC(=O)CCC(=O)O)C1=NOC(C)(C(=O)N[C@@H](CC(=O)O)C(=O)CN2CCCCC2)C1 (stereo partly drawn) [Compound 77, (3S)-3-{3-[2-methyl-(1S)-1-(succinoylamino)-propyl]-5-methyl-4,5-dihydro-isoxazole-5-carbonylamino}-4-keto-5-(N-piperidine)-pentanoic acid]
[3]
  pKi: 4.54
[1]; Homo sapiens
  pEC50: 5.00 to 6.00

## CCCCCC1(C(=O)N[C@@H](CC(=O)O)C(=O)COC(=O)c2c(Cl)cccc2Cl)CC([C@@H](NC(=O)CCC(=O)O)C(C)C)=NO1 (stereo partly drawn) [Compound 90, (3S)-3-{3-[2-methyl-(1S)-1-(succinoylamino)-propyl]-5-n-pentyl-4,5-dihydro-isoxazole-5-carbonylamino}-4-keto-5-(2,6-dichlorobenzoyloxy)-pentanoic acid]
[4]
  Kobs/[I] for caspase-3: 80100 M⁻¹ s⁻¹

## CC(C)[C@H](NC(=O)[C@H](CCC(=O)O)NC(=O)[C@H](CC(=O)O)NC(=O)OCc1ccccc1)C(=O)N[C@@H](CC(=O)O)C(=O)CCl [z-DEVD-cmk, reference compound]
[2]; Conc. 0.4 µM
  viability ratio: 15.13%
[2]; Conc. 2 µM
  viability ratio: 16.27%
[2]; Conc. 10 µM
  viability ratio: 27.38%
[2]; Conc. 50 µM, 50 µM
  viability ratio: 47.3% and 47.32%

## (3S)-3-{3-[(1S)-1-(quinoline-2-yl-carbonylamino)-2-methyl-propyl]-5-phenox ymethyl-4,5-dihydro-isoxazole-5-carbonylamino}-4-keto-pentanoic acid [Compound 22mp]
[3]
  pKi: 9.90
[1]
  pEC50: 5.00 to 6.00
